From article PMC2680243 (Cancer research, 2008)

Target: T1, Cdc25A (Homo sapiens, UniProt P30304)
T1 sequence (P30304 1-524): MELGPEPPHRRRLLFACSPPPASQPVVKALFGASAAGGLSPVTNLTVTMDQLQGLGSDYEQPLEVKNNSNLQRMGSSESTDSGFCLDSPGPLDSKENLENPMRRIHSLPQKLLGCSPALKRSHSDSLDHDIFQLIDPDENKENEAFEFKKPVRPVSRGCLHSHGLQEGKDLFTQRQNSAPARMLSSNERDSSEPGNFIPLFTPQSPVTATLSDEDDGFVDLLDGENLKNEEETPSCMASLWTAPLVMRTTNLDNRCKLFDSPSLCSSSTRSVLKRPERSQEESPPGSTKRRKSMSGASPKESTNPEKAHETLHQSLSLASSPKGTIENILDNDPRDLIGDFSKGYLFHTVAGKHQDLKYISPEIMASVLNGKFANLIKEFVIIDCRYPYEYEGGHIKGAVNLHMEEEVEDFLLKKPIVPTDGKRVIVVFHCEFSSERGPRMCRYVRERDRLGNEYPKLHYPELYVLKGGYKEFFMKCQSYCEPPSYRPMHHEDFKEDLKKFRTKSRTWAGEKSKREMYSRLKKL
Experiment: OMFP phosphatase assay, […] min pretreatment
Format: biochemical

Which IC50 does the source give for `CCOC(=O)[C@@H](N)CSN=O` [SNCEE, S-nitrosocysteine ethyl ester] here?
Its IC50 is 22.5 ± 6.2 µM.
